In US9045524B2, “Selective caspase inhibitors and uses thereof” (NOVAGENESIS FOUNDATION, priority 2009, dated 2015):

Key:
[1] = target: Caspase-6 (Homo sapiens (Human), UniProt P55212); experiment: Fluorometric enzymatic assay, active recombinant Caspase-6; format: biochemical; details: 10-point titration 0.1 nM to 3.3 μM, 30-minute incubation at 37° C.; read-out: IC50 values (μM) Caspase-6
Method: (§1) . In brief, each compound was serially diluted for a final test concentration range of 0.1 nM to 3.3 μM (10-point titration). Each active recombinant Caspase (Active Recombinant Caspase Set IV™ (BioVision, Cat# K233-10-25)) was added to the respective wells of the 96-well High Efficiency™ plates (Molecular Devices, Cat#75-000-0005), followed by the addition of the diluted test compounds. DMSO (Final=1%) or Z-VAD-FMK (Caspase-Family Inhibitor, Z-VAD-FMK (BioVision, Cat#1010-100), Final concentration=20 uM) was added in the designated wells as a background control or positive inhibitor control respectively. Each dilution of the test compounds was tested in duplicates, whereas the DMSO or Z-VAD-FMK controls were tested in triplicates. The synthetic peptide substrate specific for each Caspase (BioVision) was then added to the respective wells, which when cleaved by the active caspase releases free AFC that can be quantified by fluorometry. After a 30-minute incubation at 37° C., the plates were read using the Flexstation 3™ with a 400 nm excitation filter and a 505 nm emission filter (cutoff at 495 nm). The inhibition efficiency and the IC50 values of the test compounds were then determined by comparing the fluorescence intensity (FI) of the test compounds with that of the DMSO control.
(§2) The SoftMax Pro Software™ (v5.2 rev C, Molecular Devices) was used for data analysis. The % Inhibition is calculated by: % Inhibition=[FI(DMSO)−FI(test sample)/FI(DMSO)]×100. The % Inhibition vs. Log(concentration) was plotted, and the curve was fitted using the 5-parameter fit of the software.

[2] = target: Caspase-8 (Homo sapiens (Human), UniProt Q14790); experiment: Fluorometric enzymatic assay, active recombinant Caspase-8; format: biochemical; details: 10-point titration 0.1 nM to 3.3 μM, 30-minute incubation at 37° C.; read-out: IC50 values (μM) Caspase-8
Method: as §1, §2

Sequence of Caspase-8 (Q14790 217-374): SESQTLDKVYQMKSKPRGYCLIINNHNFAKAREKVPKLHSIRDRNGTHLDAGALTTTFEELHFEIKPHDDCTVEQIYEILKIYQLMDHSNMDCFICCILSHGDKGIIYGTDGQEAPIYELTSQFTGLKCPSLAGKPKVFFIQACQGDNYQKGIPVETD
Sequence of Caspase-8 (Q14790 385-479): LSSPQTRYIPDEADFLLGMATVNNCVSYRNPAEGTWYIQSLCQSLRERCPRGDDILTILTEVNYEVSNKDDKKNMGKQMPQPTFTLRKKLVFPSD
Sequence of Caspase-6 (P55212 24-179): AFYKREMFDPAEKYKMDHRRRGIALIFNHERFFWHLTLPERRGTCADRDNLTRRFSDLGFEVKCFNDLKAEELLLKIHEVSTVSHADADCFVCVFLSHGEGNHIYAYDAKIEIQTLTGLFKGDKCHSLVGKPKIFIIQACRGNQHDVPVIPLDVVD
Sequence of Caspase-6 (P55212 194-293): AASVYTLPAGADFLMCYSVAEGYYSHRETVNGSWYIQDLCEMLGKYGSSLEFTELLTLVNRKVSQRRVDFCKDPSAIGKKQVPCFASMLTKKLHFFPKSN

CC(C)[C@H](NC(=O)[C@@H](NC(=O)[C@H](CC(=O)O)NC(=O)OCc1ccccc1)c1ccccc1)C(=O)N[C@H](/C=C/S(C)(=O)=O)CC(=O)O [Compound 53, Z-Asp-Phg-Val-Aspmethyl vinyl sulfone]
IC50 [1]: > 3.33 µM | IC50 [2]: > 3.33 µM
